From PubChem BioAssay AID248 (DTP/NCI, 2004)
“And” between values parts separate entries of the source, which are not always exact repeats. Identical values can stand only once. Inconclusive results and toxic doses are left out. No stated cut-off is given here; in the data, active means T/C of 150% or more; inactive means T/C below 125%.

System: L1210 leukemia ip in BDF1 mice, survival T/C
Experiment: NCI In Vivo Anticancer Drug Screen. Data for tumor model L1210 Leukemia (intraperitoneal) in B6D2F1 (BDF1) mice
Conditions: endpoint: mean survival time, higher = longer survival
In short: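 Antitumor effect is assessed in tumor-bearing animals. Survival in the compound arm is compared with a vehicle-dosed control arm and expressed as their quotient.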

[1] = dose: 100.0 mg/kg/injection, schedule: Q04DX003 (ip), vehicle: acetone
[2] = dose: 100.0 mg/kg/injection, schedule: Q04DX002 (ip), vehicle: saline with Tween-80
[3] = dose: 200.0 mg/kg/injection, schedule: Q04DX002 (ip), vehicle: saline with Tween-80
[4] = dose: 400.0 mg/kg/injection, schedule: Q04DX002 (ip), vehicle: saline with Tween-80
[5] = dose: 50.0 mg/kg/injection, schedule: Q04DX002 (ip), vehicle: Klucel (hydroxypropylcellulose) (HPC)
[6] = dose: 100.0 mg/kg/injection, schedule: Q04DX002 (ip), vehicle: Klucel (hydroxypropylcellulose) (HPC)
[7] = dose: 100.0 mg/kg/injection, schedule: Q01DX009 (ip), vehicle: saline with Tween-80
[8] = dose: 100.0 mg/kg/injection, schedule: Q04DX003 (ip), vehicle: saline
[9] = dose: 100.0 mg/kg/injection, schedule: Q01DX009 (ip), vehicle: Klucel (hydroxypropylcellulose) (HPC)

Measured: T/C

COCCN(/N=N/c1nc[nH]c1C(N)=O)C(C)(C)C
inactive: dose: 50.0 mg/kg/injection, schedule: Q01DX001 (ip), vehicle: water 100 % of control | dose: 50.0 mg/kg/injection, schedule: Q04DX003 (ip), vehicle: water 101 % of control | dose: 100.0 mg/kg/injection, schedule: Q01DX001 (ip), vehicle: water 97 % of control | dose: 100.0 mg/kg/injection, schedule: Q04DX003 (ip), vehicle: water 101 % of control | dose: 200.0 mg/kg/injection, schedule: Q01DX001 (ip), vehicle: water 92 % of control | dose: 200.0 mg/kg/injection, schedule: Q04DX003 (ip), vehicle: water 102 % of control | dose: 400.0 mg/kg/injection, schedule: Q01DX001 (ip), vehicle: water 97 % of control | dose: 400.0 mg/kg/injection, schedule: Q04DX003 (ip), vehicle: water 96 % of control

[N-]=[N+]=CC(=O)CCC(=O)C=[N+]=[N-]
inactive: dose: 0.75 mg/kg/injection, schedule: Q01DX009 (ip), vehicle: other 98 % of control | dose: 1.5 mg/kg/injection, schedule: Q01DX009 (ip), vehicle: other 116 % of control | dose: 6.0 mg/kg/injection, schedule: Q01DX009 (ip), vehicle: other 116 % of control

CCCCCCC[CH2][Sn](=[O])[CH2]CCCCCCC
inactive: dose: 3.12 mg/kg/injection, schedule: Q01DX009 (ip), vehicle: saline with Tween-80 95 % of control | dose: 6.25 mg/kg/injection, schedule: Q01DX009 (ip), vehicle: saline with Tween-80 100 % of control | [1] 102 % of control

O=C(CNC(=O)c1ccc(C(=O)NCC(=O)Nc2ccc(C3=NCCCN3)cc2)cc1)Nc1ccc(C2=NCCCN2)cc1
active: dose: 20.0 mg/kg/injection, schedule: Q01DX015 (ip), vehicle: methylcellulose (MC) 229 % of control | dose: 30.0 mg/kg/injection, schedule: Q01DX015 (ip), vehicle: methylcellulose (MC) 186 % of control | dose: 40.0 mg/kg/injection, schedule: Q01DX009 (ip), vehicle: saline 153 % of control | dose: 40.0 mg/kg/injection, schedule: Q01DX015 (ip), vehicle: methylcellulose (MC) 191 % of control | dose: 60.0 mg/kg/injection, schedule: Q01DX009 (ip), vehicle: Klucel (hydroxypropylcellulose) (HPC) 256 % of control | dose: 80.0 mg/kg/injection, schedule: Q01DX009 (ip), vehicle: Klucel (hydroxypropylcellulose) (HPC) 300 % of control
inactive: dose: 0.62 mg/kg/injection, schedule: Q01DX015 (ip), vehicle: methylcellulose (MC) 101 % of control | dose: 1.25 mg/kg/injection, schedule: Q01DX009 (ip), vehicle: saline 97 % of control | dose: 1.25 mg/kg/injection, schedule: Q01DX015 (ip), vehicle: methylcellulose (MC) 98 % of control | dose: 2.5 mg/kg/injection, schedule: Q01DX009 (ip), vehicle: saline 110 % of control | dose: 2.5 mg/kg/injection, schedule: Q01DX015 (ip), vehicle: methylcellulose (MC) 98 % of control | dose: 3.75 mg/kg/injection, schedule: Q01DX015 (ip), vehicle: methylcellulose (MC) 116 % of control | dose: 10.0 mg/kg/injection, schedule: Q01DX009 (ip), vehicle: saline 113 % of control | dose: 25.0 mg/kg/injection, schedule: Q01DX001 (ip), vehicle: methylcellulose (MC) 106 % of control | dose: 50.0 mg/kg/injection, schedule: Q01DX001 (ip), vehicle: methylcellulose (MC) 113 % of control | dose: 120.0 mg/kg/injection, schedule: Q01DX009 (ip), vehicle: Klucel (hydroxypropylcellulose) (HPC) 115 % of control | dose: 160.0 mg/kg/injection, schedule: Q01DX009 (ip), vehicle: Klucel (hydroxypropylcellulose) (HPC) 102 % of control

COCCOCC(=O)O
inactive: [2] 101 % of control | [3] 96 % of control | [4] 108 % of control

CCCCC(=O)N/N=C\c1cc(Cl)ccc1[N+](=O)[O-]
inactive: dose: 100.0 mg/kg/injection, schedule: Q01DX001 (ip), vehicle: carboxymethylcellulose (CMC) 96 % of control | dose: 200.0 mg/kg/injection, schedule: Q01DX001 (ip), vehicle: carboxymethylcellulose (CMC) 91 % of control | dose: 400.0 mg/kg/injection, schedule: Q01DX001 (ip), vehicle: carboxymethylcellulose (CMC) 96 % of control

O=c1c2ccccc2nc2n1CCC2
inactive: dose: 25.0 mg/kg/injection, schedule: Q01DX001 (ip), vehicle: saline 102 % of control | dose: 50.0 mg/kg/injection, schedule: Q01DX001 (ip), vehicle: saline 93 % of control | dose: 75.0 mg/kg/injection, schedule: Q01DX001 (ip), vehicle: saline 104 % of control

Ic1c2ccccc2cc2ccccc12
inactive: [5] 95 % of control and 123 % of control | [6] 103 % of control and 86 % of control | dose: 200.0 mg/kg/injection, schedule: Q04DX002 (ip), vehicle: Klucel (hydroxypropylcellulose) (HPC) 108 % of control and 92 % of control | dose: 400.0 mg/kg/injection, schedule: Q04DX002 (ip), vehicle: Klucel (hydroxypropylcellulose) (HPC) 92 % of control

C1=C(c2ccccc2)S/C(=C/c2ccccc2)S1
inactive: dose: 25.0 mg/kg/injection, schedule: Q01DX009 (ip), vehicle: saline with Tween-80 96 % of control | dose: 50.0 mg/kg/injection, schedule: Q01DX009 (ip), vehicle: saline with Tween-80 96 % of control | dose: 50.0 mg/kg/injection, schedule: Q04DX003 (ip), vehicle: saline 88 % of control | dose: 100.0 mg/kg/injection, schedule: Q01DX001 (ip), vehicle: saline 93 % of control | [7] 94 % of control | [8] 87 % of control | dose: 200.0 mg/kg/injection, schedule: Q01DX001 (ip), vehicle: saline 88 % of control | dose: 400.0 mg/kg/injection, schedule: Q01DX001 (ip), vehicle: saline 88 % of control

NNC(=O)Cc1ccccc1
inactive: [8] 94 % of control | dose: 200.0 mg/kg/injection, schedule: Q04DX003 (ip), vehicle: saline 89 % of control

CC(=O)Nc1ccc(NC(=O)c2ccccc2Cl)cc1
inactive: [7] 93 % of control and 102 % of control | [2] 105 % of control and 90 % of control | dose: 100.0 mg/kg/injection, schedule: Q04DX003 (ip), vehicle: saline with Tween-80 98 % of control | dose: 200.0 mg/kg/injection, schedule: Q01DX009 (ip), vehicle: saline with Tween-80 96 % of control and 97 % of control | [3] 90 % of control and 91 % of control | dose: 200.0 mg/kg/injection, schedule: Q04DX003 (ip), vehicle: saline with Tween-80 95 % of control | dose: 400.0 mg/kg/injection, schedule: Q01DX009 (ip), vehicle: saline with Tween-80 117 % of control and 91 % of control | [4] 101 % of control and 110 % of control | dose: 400.0 mg/kg/injection, schedule: Q04DX003 (ip), vehicle: saline with Tween-80 98 % of control

COc1ccc2nc(C)oc2c1
inactive: [1] 97 % of control | dose: 200.0 mg/kg/injection, schedule: Q04DX003 (ip), vehicle: acetone 95 % of control | dose: 400.0 mg/kg/injection, schedule: Q04DX003 (ip), vehicle: acetone 97 % of control

O=C(O)C(Br)Cc1cnc[nH]1 (stereo not given)
inactive: dose: 50.0 mg/kg/injection, schedule: Q01DX009 (ip), vehicle: saline 106 % of control | dose: 100.0 mg/kg/injection, schedule: Q01DX009 (ip), vehicle: saline 106 % of control | dose: 200.0 mg/kg/injection, schedule: Q01DX009 (ip), vehicle: saline 98 % of control

COc1ccc(CCCNCCCCCCNCCCc2ccc(OC)cc2)cc1
inactive: dose: 25.0 mg/kg/injection, schedule: Q01DX009 (ip), vehicle: Klucel (hydroxypropylcellulose) (HPC) 104 % of control | dose: 50.0 mg/kg/injection, schedule: Q01DX009 (ip), vehicle: Klucel (hydroxypropylcellulose) (HPC) 93 % of control | [5] 96 % of control | [9] 86 % of control | [6] 96 % of control

CC(=O)Nc1ccc(Cl)cc1C(=O)O
inactive: [9] 97 % of control | dose: 100.0 mg/kg/injection, schedule: Q04DX003 (ip), vehicle: Klucel (hydroxypropylcellulose) (HPC) 97 % of control | dose: 200.0 mg/kg/injection, schedule: Q01DX009 (ip), vehicle: Klucel (hydroxypropylcellulose) (HPC) 90 % of control | dose: 200.0 mg/kg/injection, schedule: Q04DX003 (ip), vehicle: Klucel (hydroxypropylcellulose) (HPC) 94 % of control | dose: 400.0 mg/kg/injection, schedule: Q01DX009 (ip), vehicle: Klucel (hydroxypropylcellulose) (HPC) 93 % of control | dose: 400.0 mg/kg/injection, schedule: Q04DX003 (ip), vehicle: Klucel (hydroxypropylcellulose) (HPC) 102 % of control
